Holding throughout (type): cell-based, dog
One test concerns the target T1, canine COX-1 (Canis lupus familiaris, UniProt Q8HZR1).
T1 construct: from tissue; host or cells: washed platelets from donor dog blood
T1 sequence (Q8HZR1 28-603): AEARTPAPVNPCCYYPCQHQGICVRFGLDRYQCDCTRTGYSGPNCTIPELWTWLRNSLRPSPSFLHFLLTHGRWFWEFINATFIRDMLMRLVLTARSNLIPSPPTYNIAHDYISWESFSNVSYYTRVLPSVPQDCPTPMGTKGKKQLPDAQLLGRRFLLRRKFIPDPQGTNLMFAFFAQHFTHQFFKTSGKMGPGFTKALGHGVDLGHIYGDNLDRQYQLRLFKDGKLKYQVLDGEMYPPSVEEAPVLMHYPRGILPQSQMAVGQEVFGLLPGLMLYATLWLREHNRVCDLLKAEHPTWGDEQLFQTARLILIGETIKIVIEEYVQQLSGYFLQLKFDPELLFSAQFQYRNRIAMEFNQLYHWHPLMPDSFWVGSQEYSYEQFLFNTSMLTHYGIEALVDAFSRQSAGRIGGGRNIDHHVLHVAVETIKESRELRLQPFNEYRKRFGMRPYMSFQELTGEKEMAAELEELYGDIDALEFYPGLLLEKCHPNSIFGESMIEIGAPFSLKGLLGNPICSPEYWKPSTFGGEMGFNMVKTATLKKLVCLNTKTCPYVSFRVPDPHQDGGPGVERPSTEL
As to the kind of experiment: Canine COX-1 activity: washed canine platelets, A23187-stimulated TXB2 by EIA. As to conditions: results of repeated tests averaged. The method, then: Protocol for Evaluation of Canine COX-1 Activity
Test drug compounds were solubilized and diluted the day before the assay was to be conducted with 0.1 mL of DMSO/9.9 mL of Hank's balanced salts solution (HBSS), and stored overnight at 4° C. On the day that the assay was carried out, citrated blood was drawn from a donor dog, centrifuged at 190×g for 25 min at room temperature, and the resulting platelet-rich plasma was then transferred to a new tube for further procedures. The platelets were washed by centrifuging at 1500×g for 10 min at room temperature. The platelets were washed with platelet buffer comprising Hank's buffer (Ca free) with 0.2% bovine serum albumin (BSA) and 20 mM HEPES. […] Then, 100 μl of canine washed platelets were added and the samples were incubated at 37° C. for 15 min, after which the reaction was stopped by adding 20 μl of 77 mM EDTA. The plates were then centrifuged at 2000×g for 10 min at […], after which 50 μl of supernatant was assayed for thromboxane B2 (TXB2) by enzyme-immunoassay (EIA).

In test [1] the target is T2, canine COX-2 (Canis lupus familiaris, UniProt Q8SPQ9).
T2 construct: host or cells: DH82 canine histocytoma cells, LPS-treated overnight
T2 sequence (Q8SPQ9 18-604): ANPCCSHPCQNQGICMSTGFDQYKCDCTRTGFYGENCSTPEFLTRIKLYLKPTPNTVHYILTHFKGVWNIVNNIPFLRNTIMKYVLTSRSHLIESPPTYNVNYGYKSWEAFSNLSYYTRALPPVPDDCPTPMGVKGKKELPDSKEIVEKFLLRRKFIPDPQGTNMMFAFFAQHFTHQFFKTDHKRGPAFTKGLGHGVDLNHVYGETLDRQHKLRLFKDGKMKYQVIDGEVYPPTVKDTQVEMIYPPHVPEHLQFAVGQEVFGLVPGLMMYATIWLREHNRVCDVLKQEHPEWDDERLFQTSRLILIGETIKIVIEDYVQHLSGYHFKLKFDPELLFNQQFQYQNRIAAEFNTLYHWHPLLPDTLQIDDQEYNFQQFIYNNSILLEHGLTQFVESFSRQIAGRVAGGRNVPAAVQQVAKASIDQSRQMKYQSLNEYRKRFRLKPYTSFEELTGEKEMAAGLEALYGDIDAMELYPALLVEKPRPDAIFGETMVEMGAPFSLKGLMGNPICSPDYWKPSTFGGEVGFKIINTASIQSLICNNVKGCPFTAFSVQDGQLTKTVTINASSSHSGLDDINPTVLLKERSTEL
Put plainly: Canine COX-2 activity: LPS-treated DH82 canine histocytoma cells, PGE2 by EIA. As for the experimental part: (§1) Protocol for Evaluation of Canine COX-2 Activity
(§2) A canine histocytoma (macrophage-like) cell line from the American Type Culture Collection designated as DH82, was used in setting up the protocol for evaluating the COX-2 inhibition activity of various test drug compounds. There was added to flasks of these cells 10 μg/mL of LPS, after which the flask cultures were incubated overnight. The same test drug compound dilutions as described above for the COX-1 protocol were used for the COX-2 assay and were prepared the day before the assay was carried out. […] The test sample suspensions were incubated for 1 hr and then centrifuged at 1000 rpm for 10 min at 4° C., after which 50 μl aliquots of each test drug sample were delivered to EIA plates. The EIA was performed for prostaglandin E2 (PGE2), and the pg/mL concentration of PGE2 was calculated from the standard line included on each plate. […] The results were averaged, and a single COX-1:COX-2 ratio was calculated.

Test [2] deals with canine COX-2. The description is as above. The method, then:
as §1, §2

Setting [3] is: DH82 cells, PGE2, results of repeated tests averaged, read-out: COX-2 IC50.
The mark [4] stands for this setting: ratio of canine COX-1 IC50 to COX-2 IC50, higher = more COX-2 selective.

Where two headings read alike, the source gives them in different places.

One may read the IC50 as the midpoint of a concentration-inhibition curve.

The compound `CN1C(C(=O)Nc2ccccn2)=C(O)c2ccccc2S1(=O)=O` [Piroxicam, 4-hydroxyy-2-methyl-N-2-pyridinyl-2H-1,2-benzothiazine-3-carboxamide-1,1-dioxide] displayed an IC50 against canine COX-1 of 223 nM.
`O=C(O)Cc1ccc(-c2ccccc2)cc1` [Felbinac, [1,1′-biphenyl]-4-acetic acid]: the IC50 against canine COX-1 came to 2540 nM; at canine COX-2 [1] (setting [3]), 362 nM. Moreover, the “COX-1/COX-2 Ratio” value with canine COX-2 [2] (setting [4]) is reported as 7.01.
On to `CCc1cccc2c3c([nH]c12)C(CC)(CC(=O)O)OCC3` (stereo not shown) [Etodolac, 1,8-diethyl-1,3,4,9-tetrahydro-pyrano[3,4-b]indole-1-acetic acid], for which the figures for the IC50 against canine COX-1 and against canine COX-2 [1] were 1330 nM and 2570 nM, respectively. The “COX-1/COX-2 Ratio” value with canine COX-2 [2] is 0.517.
As to `Cc1c(Cl)cccc1Nc1ccccc1C(=O)O` [Tolfenamic acid, N-(3-chloro-o-tolyl)-anthranilic acid], the IC50 at canine COX-1 was 206 nM; at canine COX-2 [1] (setting [3]), 13.7 nM. Moreover, the “COX-1/COX-2 Ratio” value in the test on canine COX-2 [2] (setting [4]) is recorded as 15.0.
On to `Cc1c(Nc2ncccc2C(=O)O)cccc1C(F)(F)F` [Flunixin, 2-{[2-methyl-3-(trifluoromethyl)-phenyl]amino}-3-pyridinecarboxylic acid; compounded with 1-deoxy-1-(methylamino)-D-glucitol(1:1)], for which the IC50 against canine COX-1 was 7.68 nM; at canine COX-2 [1] (setting [3]) it was 12.1 nM. The “COX-1/COX-2 Ratio” value in the test with canine COX-2 [2] (setting [4]) was 0.635.
On to `Cc1ccc(Cl)c(Nc2ccccc2C(=O)O)c1Cl` [Meclofenamic acid, 2-[(2,6-dichloro-3-methylphenyl)amino]-benzoic acid], for which the IC50 on canine COX-1 is 737 nM; at canine COX-2 [1] (setting [3]) it was 47.8 nM. The “COX-1/COX-2 Ratio” value with canine COX-2 [2] (setting [4]) is recorded as 15.4.
As for `Cc1cccc(Nc2ccccc2C(=O)O)c1C` [Mefenamic acid, 2-[(2,3-dimethylphenyl)amino]-benzoic acid], the IC50 against canine COX-1 amounted to 403 nM; against canine COX-2 [1] it was 36.2 nM. The “COX-1/COX-2 Ratio” value in the test with canine COX-2 [2] (setting [4]) was 11.1.
With `CC(=O)Oc1ccccc1C(=O)O` [Aspirin, 2-(acetyloxy)-benzoic acid], the IC50 at canine COX-1 is 34300 nM; at canine COX-2 [1] it was above 100000 nM. For the same compound, the “COX-1/COX-2 Ratio” value in the test on canine COX-2 [2] (setting [4]) is below 0.343.
For the compound `C[C@H](C(=O)O)c1ccc2c(c1)[nH]c1ccc(Cl)cc12` [Carprofen (S-), (S)-6-chloro-α-methyl-carbazole-2-acetic acid], the IC50 against canine COX-1 is 6710 nM; against canine COX-2 [1], 37.1 nM.
Turning to `C[C@@H](C(=O)O)c1ccc2c(c1)[nH]c1ccc(Cl)cc12` [Carprofen (R-)], the IC50 against canine COX-1 was above 25000 nM; against canine COX-2 [1] it was 5970 nM.
On canine COX-1, `NC(=O)N1C(=O)C(C(=O)c2cccs2)c2cc(Cl)ccc21` (stereo not shown) [Tenidap, 5-chloro-2,3-dihydro-3-(hydroxy-2-thienylmethylene)-2-oxo-1H-indole-1-carboxamide] had an IC50 of 469 nM.
With `CC(C(=O)O)c1ccc(-c2ccccc2)c(F)c1` (stereo not drawn) [Flurbiprofen, 2-fluoro-α-methyl-[1,1′-biphenyl]-4-acetic acid], the IC50 at canine COX-1 stood at 505 nM.
For `CC(C(=O)O)c1cccc(C(=O)c2ccccc2)c1` (stereo not drawn) [Ketoprofen, 3-benzoyl-α-methyl-benzeneacetic acid], half-maximal inhibition against canine COX-2 [1] (IC50) required 123 nM.
With `O=C(O)c1cccnc1Nc1cccc(C(F)(F)F)c1` [Niflumic acid, 2-[3-(trifluoromethyl)anilino]nicotinic acid], the IC50 against canine COX-1 turned out to be 1030 nM; on canine COX-2 [1] (setting [3]) it was 46.4 nM. Besides, the “COX-1/COX-2 Ratio” value in the test on canine COX-2 [2] (setting [4]) was 22.2.
The matching figures for `O=C(O)c1ccccc1Nc1cccc(C(F)(F)F)c1` [Flufenamic acid, 2-{[3-(trifluoromethyl)phenyl]amino}-benzoic acid]: 2310 nM, 47.5 nM and 48.6.
On to `CCCCC1C(=O)N(c2ccccc2)N(c2ccccc2)C1=O` [Phenylbutazone, 4-butyl-1,2-diphenyl-3,5pyrazolidinedione], for which the IC50 on canine COX-2 [1] (setting [3]) was 3790 nM.
Consider `COc1ccc2cc(CC(=O)O)ccc2c1` [6-MNA, 6-methoxy-2-naphthyl-acetic acid], for which the IC50 turned out to be 28300 nM against canine COX-1 and 4210 nM at canine COX-2 [1] (setting [3]). Further, the “COX-1/COX-2 Ratio” value in the test on canine COX-2 [2] (setting [4]) is reported as 6.72.
Consider `CS(=O)(=O)Nc1ccc([N+](=O)[O-])cc1Oc1ccccc1` [Nimesulide, 4′-nitro-2′-phenoxymethanesulfonanilide], for which, on canine COX-2 [1], the IC50 came to 56.5 nM.
Same read-out and setting: next, `COc1ccc2cc(C(C)C(=O)O)ccc2c1` (stereo not drawn) [Naproxen, 6-methoxy-α-methyl-2-naphthaleneacetic acid]: 626 nM.
For the compound `Cc1cnc(NC(=O)C2=C(O)c3ccccc3S(=O)(=O)N2C)s1` [Meloxicam, 4-hydroxy-2-methyl-N-(5-methyl-2-thiazolyl)-2H-1,2-benzothiazine-3-carboxamide], half-maximal inhibition against canine COX-1 (IC50) required 891 nM.
For `NC(=O)N1C(=O)C(C(=O)c2cccs2)c2cc(F)c(Cl)cc21` (stereo not shown) [Ilonidap, 6-chloro-5-fluoro-2,3-dihydro-(hydroxy-2-thienylmethylene)-2-oxo-1H-indole-1-carboxamide], the IC50 against canine COX-1 came out at 472 nM; at canine COX-2 [1] (setting [3]), 270 nM. In addition, the “COX-1/COX-2 Ratio” value with canine COX-2 [2] (setting [4]) is given as 1.75.
On to `CS(=O)(=O)Nc1ccc([N+](=O)[O-])cc1OC1CCCCC1` [NS-398, N-[2-(cyclohexyloxy)-4-nitrophenyl]-methanesulfonamide], for which the IC50 against canine COX-1 was determined as 587 nM.
On to `C=CCOc1ccc(CC(=O)O)cc1Cl` [Alclofenac, 3-chloro-4-(2-propenyloxy)-benzene acetic acid], for which the half-inhibitory concentration (IC50) against canine COX-1 came out at 13200 nM; at canine COX-2 [1] (setting [3]), 7410 nM. The “COX-1/COX-2 Ratio” value in the test on canine COX-2 [2] (setting [4]) came to 1.78.

(Values after patent publication US20030212123A1, “COX-2 selective carprofen for treating pain and inflammation in dogs” (Pfizer Inc., priority 1997, published 2003).)
